Test [1] concerns the target T1, gastric inhibitory peptide receptor (GIPR) (Homo sapiens, UniProt P48546).
T1 sequence (P48546 22-466): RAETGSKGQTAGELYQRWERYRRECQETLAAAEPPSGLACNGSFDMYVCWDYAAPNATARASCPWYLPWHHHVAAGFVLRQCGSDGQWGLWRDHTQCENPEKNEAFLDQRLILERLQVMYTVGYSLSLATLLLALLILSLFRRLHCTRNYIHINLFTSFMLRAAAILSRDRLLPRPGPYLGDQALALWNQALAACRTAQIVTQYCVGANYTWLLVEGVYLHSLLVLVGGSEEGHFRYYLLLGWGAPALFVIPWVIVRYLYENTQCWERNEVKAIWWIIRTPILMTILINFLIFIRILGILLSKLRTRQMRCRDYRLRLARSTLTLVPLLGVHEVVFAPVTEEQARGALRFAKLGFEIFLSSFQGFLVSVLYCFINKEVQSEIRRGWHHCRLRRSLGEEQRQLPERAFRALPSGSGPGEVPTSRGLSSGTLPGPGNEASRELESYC
The test is described as follows: cAMP pharmacological functional assay in presence of casein, hGIPR. Particulars: HEK293 cells expressing hGIPR, 0.1% Casein, geometric mean; read-out: hGIPR cAMP Rel EC50 nM (SEM, n). Type of test: cell-based.

Test [2] has as its target human GLP-1 receptor (GLP-1R) (Homo sapiens, UniProt P43220). The test is described as follows: cAMP pharmacological functional assay in presence of casein, hGLP-1R. Particulars: HEK293 cells expressing hGLP-1R, 0.1% Casein, geometric mean; read-out: hGLP1R cAMP Rel EC50 nM (SEM, n). Type of test: cell-based.

Structures are written as SMILES. Numbered stars: 1 amine (or outer) side, 2 acyl side, 3 side chain; on linkers, the order of the positions; unused ones are H or OH. Square brackets hold non-standard residues; d marks the D form. Side chains are listed from the residue outwards. Peptide text beside a SMILES is read from it. * marks the point of attachment. C20 diacid = O=C(O)CCCCCCCCCCCCCCCCCCC(=O)*; αMePhe(2-F) = C[C@](N)(Cc1ccccc1F)C(=O)O; C16 diacid = O=C(O)CCCCCCCCCCCCCCC(=O)*; γGlu = O=C(O)[C@H](CCC(=O)[*:2])N[*:1]; αMeL = CC(C)C[C@](C)(N)C(=O)O; Orn = NCCC[C@H](N)C(=O)O; Dab = NCC[C@H](N)C(=O)O; Dap = NC[C@H](N)C(=O)O; AEEA = NCCOCCOCC(=O)O; Aib = CC(C)(N)C(=O)O

For six compounds, EC50 results are on record in US12252524B2, “GIP/GLP1 co-agonist compounds” (Eli Lilly and Company, priority 2018, dated 2025).

Broadly, the EC50 is the concentration needed to bring the measured effect to its halfway point.

Sequence of human GLP-1 receptor (GLP-1R) (P43220 24-463): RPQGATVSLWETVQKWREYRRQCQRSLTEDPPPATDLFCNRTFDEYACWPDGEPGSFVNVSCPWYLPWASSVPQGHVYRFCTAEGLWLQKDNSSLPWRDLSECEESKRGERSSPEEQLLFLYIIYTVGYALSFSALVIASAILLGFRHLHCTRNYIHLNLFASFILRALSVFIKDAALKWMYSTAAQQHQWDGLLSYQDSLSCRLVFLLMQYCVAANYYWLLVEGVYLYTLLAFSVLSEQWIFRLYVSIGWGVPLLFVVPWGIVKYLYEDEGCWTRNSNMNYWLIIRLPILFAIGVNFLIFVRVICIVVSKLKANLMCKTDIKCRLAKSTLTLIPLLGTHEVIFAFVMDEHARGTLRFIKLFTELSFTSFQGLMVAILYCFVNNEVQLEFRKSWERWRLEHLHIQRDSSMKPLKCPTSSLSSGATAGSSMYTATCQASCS

Take `CC[C@H](C)[C@H](NC(=O)[C@H](CC(C)C)NC(=O)[C@H](Cc1ccc(O)cc1)NC(=O)[C@@H](CCC(=O)O)NC(=O)[C@@H](NC(=O)[C@H](Cc1ccccc1)NC(=O)[C@@H](NC(=O)C(C)(C)NC(=O)[C@H](CCC(N)=O)NC(=O)[C@H](C)NC(=O)[C@H](CCCCNC(=O)COCCOCCNC(=O)COCCOCCNC(=O)CC[C@H](NC(=O)CCCCCCCCCCCCCCC(=O)O)C(=O)O)NC(=O)[C@H](CCC(=O)O)NC(=O)[C@H](CC(=O)O)NC(=O)[C@H](CC(C)C)NC(=O)[C@](C)(CC(C)C)NC(=O)[C@@H](NC(=O)[C@H](CO)NC(=O)[C@H](Cc1c[nH]cn1)NC(=O)[C@H](CC(=O)O)NC(=O)[C@H](CO)NC(=O)[C@@H](NC(=O)[C@](C)(Cc1ccccc1F)NC(=O)[C@@H](NC(=O)CNC(=O)[C@H](CCC(=O)O)NC(=O)C(C)(C)NC(=O)[C@@H](N)Cc1ccc(O)cc1)[C@@H](C)O)[C@@H](C)O)[C@@H](C)CC)[C@@H](C)O)[C@@H](C)CC)C(=O)N[C@@H](CCC(=O)O)C(=O)NCC(=O)NCC(=O)N1CCC[C@H]1C(=O)N[C@@H](CO)C(=O)N[C@@H](CO)C(=O)NCC(=O)N[C@@H](C)C(=O)N1CCC[C@H]1C(=O)N1CCC[C@H]1C(=O)N1CCC[C@H]1C(=O)N[C@@H](CO)C(N)=O` [Example 170] (H-Y[Aib]EGT[αMePhe(2-F)]TSDHSI[αMeL]LDEK([AEEA-AEEA-γGlu-C16 diacid])AQ[Aib]TFI[dE]YLIEGGPSSGAPPPS-NH2): the EC50 is 0.569 nM in test [1] and 10.4 nM in test [2].

On to `CC[C@H](C)[C@H](NC(=O)[C@H](CC(C)C)NC(=O)[C@H](Cc1ccc(O)cc1)NC(=O)[C@@H](CCC(=O)O)NC(=O)[C@@H](NC(=O)[C@H](Cc1ccccc1)NC(=O)[C@@H](NC(=O)C(C)(C)NC(=O)[C@H](CCC(N)=O)NC(=O)[C@H](C)NC(=O)[C@H](CCCCNC(=O)COCCOCCNC(=O)COCCOCCNC(=O)CC[C@H](NC(=O)CCCCCCCCCCCCCCCCCCC(=O)O)C(=O)O)NC(=O)[C@H](CCCN)NC(=O)[C@H](CC(=O)O)NC(=O)[C@H](CC(C)C)NC(=O)[C@](C)(CC(C)C)NC(=O)[C@@H](NC(=O)[C@H](CO)NC(=O)[C@H](Cc1c[nH]cn1)NC(=O)[C@H](CC(=O)O)NC(=O)[C@H](CO)NC(=O)[C@@H](NC(=O)[C@](C)(Cc1ccccc1F)NC(=O)[C@@H](NC(=O)CNC(=O)[C@H](CCC(=O)O)NC(=O)C(C)(C)NC(=O)[C@@H](N)Cc1ccc(O)cc1)[C@@H](C)O)[C@@H](C)O)[C@@H](C)CC)[C@@H](C)O)[C@@H](C)CC)C(=O)N[C@@H](CCC(=O)O)C(=O)NCC(=O)NCC(=O)N1CCC[C@H]1C(=O)N[C@@H](CO)C(=O)N[C@@H](CO)C(=O)NCC(=O)N[C@@H](C)C(=O)N1CCC[C@H]1C(=O)N1CCC[C@H]1C(=O)N1CCC[C@H]1C(=O)N[C@@H](CO)C(N)=O` [Example 171] (H-Y[Aib]EGT[αMePhe(2-F)]TSDHSI[αMeL]LD[Orn]K([AEEA-AEEA-γGlu-C20 diacid])AQ[Aib]TFI[dE]YLIEGGPSSGAPPPS-NH2), for which the EC50 in test [1] was found to be 0.223 nM; in test [2] it was 0.75 nM.

Take `CC[C@H](C)[C@H](NC(=O)[C@H](CC(C)C)NC(=O)[C@H](Cc1ccc(O)cc1)NC(=O)[C@@H](CCC(=O)O)NC(=O)[C@@H](NC(=O)[C@H](Cc1ccccc1)NC(=O)[C@@H](NC(=O)C(C)(C)NC(=O)[C@H](CCC(N)=O)NC(=O)[C@H](C)NC(=O)[C@H](CCCCNC(=O)COCCOCCNC(=O)COCCOCCNC(=O)CC[C@H](NC(=O)CCCCCCCCCCCCCCCCCCC(=O)O)C(=O)O)NC(=O)[C@H](CCN)NC(=O)[C@H](CC(=O)O)NC(=O)[C@H](CC(C)C)NC(=O)[C@](C)(CC(C)C)NC(=O)[C@@H](NC(=O)[C@H](CO)NC(=O)[C@H](Cc1c[nH]cn1)NC(=O)[C@H](CC(=O)O)NC(=O)[C@H](CO)NC(=O)[C@@H](NC(=O)[C@](C)(Cc1ccccc1F)NC(=O)[C@@H](NC(=O)CNC(=O)[C@H](CCC(=O)O)NC(=O)C(C)(C)NC(=O)[C@@H](N)Cc1ccc(O)cc1)[C@@H](C)O)[C@@H](C)O)[C@@H](C)CC)[C@@H](C)O)[C@@H](C)CC)C(=O)N[C@@H](CCC(=O)O)C(=O)NCC(=O)NCC(=O)N1CCC[C@H]1C(=O)N[C@@H](CO)C(=O)N[C@@H](CO)C(=O)NCC(=O)N[C@@H](C)C(=O)N1CCC[C@H]1C(=O)N1CCC[C@H]1C(=O)N1CCC[C@H]1C(=O)N[C@@H](CO)C(N)=O` [Example 172] (H-Y[Aib]EGT[αMePhe(2-F)]TSDHSI[αMeL]LD[Dab]K([AEEA-AEEA-γGlu-C20 diacid])AQ[Aib]TFI[dE]YLIEGGPSSGAPPPS-NH2; N-terminus assumed): the EC50 was determined as 1.05 nM in test [1] and 1.2 nM in test [2].

With `CC[C@H](C)[C@H](NC(=O)[C@H](CC(C)C)NC(=O)[C@H](Cc1ccc(O)cc1)NC(=O)[C@@H](CCC(=O)O)NC(=O)[C@@H](NC(=O)[C@H](Cc1ccccc1)NC(=O)[C@@H](NC(=O)C(C)(C)NC(=O)[C@H](CCC(N)=O)NC(=O)[C@H](C)NC(=O)[C@H](CCCCNC(=O)COCCOCCNC(=O)COCCOCCNC(=O)CC[C@H](NC(=O)CCCCCCCCCCCCCCCCCCC(=O)O)C(=O)O)NC(=O)[C@H](CN)NC(=O)[C@H](CC(=O)O)NC(=O)[C@H](CC(C)C)NC(=O)[C@](C)(CC(C)C)NC(=O)[C@@H](NC(=O)[C@H](CO)NC(=O)[C@H](Cc1c[nH]cn1)NC(=O)[C@H](CC(=O)O)NC(=O)[C@H](CO)NC(=O)[C@@H](NC(=O)[C@](C)(Cc1ccccc1F)NC(=O)[C@@H](NC(=O)CNC(=O)[C@H](CCC(=O)O)NC(=O)C(C)(C)NC(=O)[C@@H](N)Cc1ccc(O)cc1)[C@@H](C)O)[C@@H](C)O)[C@@H](C)CC)[C@@H](C)O)[C@@H](C)CC)C(=O)N[C@@H](CCC(=O)O)C(=O)NCC(=O)NCC(=O)N1CCC[C@H]1C(=O)N[C@@H](CO)C(=O)N[C@@H](CO)C(=O)NCC(=O)N[C@@H](C)C(=O)N1CCC[C@H]1C(=O)N1CCC[C@H]1C(=O)N1CCC[C@H]1C(=O)N[C@@H](CO)C(N)=O` [Example 173] (H-Y[Aib]EGT[αMePhe(2-F)]TSDHSI[αMeL]LD[Dap]K([AEEA-AEEA-γGlu-C20 diacid])AQ[Aib]TFI[dE]YLIEGGPSSGAPPPS-NH2), the concentration giving a half-maximal response (EC50) was 0.586 nM in test [1] and 1.23 nM in test [2].

Take `CC[C@H](C)[C@H](NC(=O)[C@H](CC(C)C)NC(=O)[C@H](Cc1ccc(O)cc1)NC(=O)[C@@H](CCC(=O)O)NC(=O)[C@@H](NC(=O)[C@H](Cc1ccccc1)NC(=O)[C@@H](NC(=O)C(C)(C)NC(=O)[C@H](CCC(N)=O)NC(=O)[C@H](C)NC(=O)[C@H](CCCCNC(=O)COCCOCCNC(=O)COCCOCCNC(=O)CCCCCCCCCCCCCCCCCCC(=O)O)NC(=O)[C@H](CCC(=O)O)NC(=O)[C@H](CC(=O)O)NC(=O)[C@H](CC(C)C)NC(=O)[C@](C)(CC(C)C)NC(=O)[C@@H](NC(=O)[C@H](CO)NC(=O)[C@H](Cc1c[nH]cn1)NC(=O)[C@H](CC(=O)O)NC(=O)[C@H](CO)NC(=O)[C@@H](NC(=O)[C@](C)(Cc1ccccc1F)NC(=O)[C@@H](NC(=O)CNC(=O)[C@H](CCC(=O)O)NC(=O)C(C)(C)NC(=O)[C@@H](N)Cc1ccc(O)cc1)[C@@H](C)O)[C@@H](C)O)[C@@H](C)CC)[C@@H](C)O)[C@@H](C)CC)C(=O)N[C@@H](CCC(=O)O)C(=O)NCC(=O)NCC(=O)N1CCC[C@H]1C(=O)N[C@@H](CO)C(=O)N[C@@H](CO)C(=O)NCC(=O)N[C@@H](C)C(=O)N1CCC[C@H]1C(=O)N1CCC[C@H]1C(=O)N1CCC[C@H]1C(=O)N[C@@H](CO)C(N)=O` [Example 174] (H-Y[Aib]EGT[αMePhe(2-F)]TSDHSI[αMeL]LDEK([AEEA-AEEA-C20 diacid])AQ[Aib]TFI[dE]YLIEGGPSSGAPPPS-NH2): the half-maximal effective concentration (EC50) in test [1] came out at 0.217 nM; in test [2], 0.472 nM.

In the case of `CC[C@H](C)[C@H](NC(=O)[C@H](CC(C)C)NC(=O)[C@H](Cc1ccc(O)cc1)NC(=O)[C@@H](CCC(=O)O)NC(=O)[C@@H](NC(=O)[C@H](Cc1ccccc1)NC(=O)[C@@H](NC(=O)C(C)(C)NC(=O)[C@H](CCC(N)=O)NC(=O)[C@H](C)NC(=O)[C@H](CCCCNC(=O)COCCOCCNC(=O)COCCOCCNC(=O)[C@@H](N)CCCCNC(=O)CCCCCCCCCCCCCCCCCCC(=O)O)NC(=O)[C@H](CCC(=O)O)NC(=O)[C@H](CC(=O)O)NC(=O)[C@H](CC(C)C)NC(=O)C(C)(CC(C)C)NC(=O)[C@@H](NC(=O)[C@H](CO)NC(=O)[C@H](Cc1c[nH]cn1)NC(=O)[C@H](CC(=O)O)NC(=O)[C@H](CO)NC(=O)[C@@H](NC(=O)C(C)(Cc1ccccc1F)NC(=O)[C@@H](NC(=O)CNC(=O)[C@H](CCC(=O)O)NC(=O)C(C)(C)NC(=O)[C@@H](N)Cc1ccc(O)cc1)[C@@H](C)O)[C@@H](C)O)[C@@H](C)CC)[C@@H](C)O)[C@@H](C)CC)C(=O)N[C@@H](CCC(=O)O)C(=O)NCC(=O)NCC(=O)N1CCC[C@H]1C(=O)N[C@@H](CO)C(=O)N[C@@H](CO)C(=O)NCC(=O)N[C@@H](C)C(=O)N1CCC[C@H]1C(=O)N1CCC[C@H]1C(=O)N1CCC[C@H]1C(=O)N[C@@H](CO)C(N)=O` (stereo partly drawn) [Example 175], the results for the EC50 in test [1] and in test [2] were 0.0881 nM and 1.11 nM, respectively.
